According to patent publication US9024018B2, “3-substituted-8-substituted-3H-imidazo[5,1-d][1,2,3,5]tetrazin-4-one compounds and their use” (Pharminox Limited, priority 2009, dated 2015):

What was measured:
Type in all cases: cell-based
U373M = assay: MTT assay for 7-day toxicity, U373M glioma cells (stably transfected with MGMT, MGMT+); conditions: 7 day MTT assay, glioma line U373M
Method: (§1) The cell culture techniques were carried out in a Class II microbiological safety cabinet which was swabbed with 70% IMS in distilled water before each use. Glioma cells were routinely cultured in Costar tissue culture flasks in RPMI 1640 liquid medium (containing 0.3 g/L L-glutamine and 2 g/L sodium bicarbonate) supplemented with 10% heat inactivated FBS (55-59° C.) for 1 hour to denature complement proteins which would otherwise evoke a cellular immune response resulting in cell lysis, 1% non-essential amino acids, 50 μg/mL gentamicin and 400 μg/mL G418 (vector selection reagent). Colorectal and melanoma cells were maintained in RPMI 1640 supplemented with 10% FBS. MRC-5 cells were cultured in EMEM+10% FBS, 1% pen/strep, 1% non-essential amino acids, 1% HEPES (1M) and 1% sodium bicarbonate.
(§2) Cells were grown at 37° C. in a humidified incubator in an atmosphere comprising 95% air/5% CO2. Cells were sub-cultured when growth exceeded approximately 80% confluence, normally twice weekly. The medium was aspirated from the flask and approximately 0.8 mL trypsin-EDTA 1× solution added. The cells were re-incubated at 37° C. until they had visibly detached from the flask. The cells were re-suspended in 5 mL medium and 0.5-1 mL was transferred to a new flask (25 cm^2) with 7 mL culture medium. The cells were further incubated at 37° C. To minimize phenotypic drift, cells were disposed of once they had been subcultured 30 times. New batches of cells were thawed rapidly in 37° C. water bath once taken from liquid nitrogen storage and re-suspended in 10 mL of culture medium in a 25 cm^2 flask. Cells were passaged twice to allow normal growth to resume prior to use in experiments.
(§3) Most test compounds, including temozolomide, were prepared as 100 mM stock solutions in DMSO and stored at −20° C. for not more than 6 months.
(§4) MTT Assay for 7-Day Toxicity Assay
(§5) This assay was first described in Mosmann, T., 1983, “Rapid colorimetric assay for cellular growth and survival: Application to proliferation and cytotoxicity assays”, Journal of Immunological Methods, Vol. 65, Nos. 1-2, pp. 55-63.
(§6) Glioma cell lines, SNB19 and U373, both stably transfected with MGMT (i.e., SNB19M and U373M) or their respective vector controls (i.e., SNB19V and U373V); colorectal carcinoma cell lines, HCT116, HT29, and DLD1; melanoma cell line, SKMEL-28; breast cell line, MCF-7; and normal human fetal lung fibroblast cell line, MRC-5; were used at 60-80% confluence, during the logarithmic phase of growth.
(§7) Following harvesting with trypsin/EDTA, cells in suspension were gently syringed through a 23 gauge needle to obtain a near-single cell suspension. Cells were then seeded into 96-well plates at the desired density in 180 μL culture medium if only one test compound was to be added, or in 160 μL if two test compounds were to be added in combination. Cells were allowed to attach overnight by incubation at 37° C. in 95% air/5% CO2. For the 7 day assay, the cell seeding densities for the different cell lines were as follows: SNB19V, SNB19M: 650 cells/well; U373V, U373M: 650 cells/well; SNB19VR, U373VR: 650 cells/well; HCT116, DLD-1, SKMEL-28, MRC-5, MCF-7: 400 cells/well.
(§8) The two peripheral lanes of each plate were used as blank wells (cell free) and filled with 200 μL of medium in order to minimise medium evaporation from the plate. A separate time zero (T0) plate was set up alongside other plates. Serial dilutions in tissue culture medium of a 100 mM stock of test compound were prepared immediately before each assay to ten times the final concentrations required. 20 μL was added to each well (200 μL total media per well) to achieve final concentrations of 0.5 μM, 1 μM, 5 μM, 10 μM, 50 μM, 100 μM, 500 μM, and 1000 μM. A minimum of four wells received the same test compound concentration. To control wells, including those in the T0 plate, 20 μL of medium was added. […]

SNB19M = assay: MTT assay for 7-day toxicity, SNB19M glioma cells (stably transfected with MGMT, MGMT+); conditions: 7 day MTT assay, glioma line SNB19M
Method: as §1, §2, §3, §4, §5, §6, §7, §8

SNB19V = assay: MTT assay for 7-day toxicity, SNB19V glioma cells (vector control, MGMT-); conditions: Glioma cell, 168 h, 7 day MTT assay, glioma line SNB19V
Method: as §1, §2, §3, §4, §5, §6, §7, §8

U373V = assay: MTT assay for 7-day toxicity, U373V glioma cells (vector control, MGMT-); conditions: 7 day MTT assay, glioma line U373V
Method: as §1, §2, §3, §4, §5, §6, §7, §8

Row | SMILES | GI50 (U373M; Glioma cell, 168 h) | GI50 (SNB19M; Glioma cell, 168 h) | GI50 (SNB19V) | GI50 (U373V; Glioma cell, 168 h) | GI50 (U373M) | GI50 (SNB19M) | GI50 (U373V)
1 | C#CCn1nnc2c(-c3nc(-c4ccccc4)cn3C)ncn2c1=O [WW-052, 8-(1-Methyl-4-phenyl-1H-imidazol-2-yl)-3-(prop-2-ynyl)imidazo[5,1-d][1,2,3,5]tetrazin-4(3H)-one] | < 60 µM | < 70 µM | < 45 µM | < 75 µM |  |  | 
2 | CCc1csc(-c2ncn3c(=O)n(C)nnc23)n1 [WW-003, 8-(4-Ethylthiazol-2-yl)-3-methylimidazo[5,1-d][1,2,3,5]tetrazin-4(3H)-one] | < 60 µM | < 70 µM | < 45 µM | < 75 µM |  |  | 
3 | C#CCn1nnc2c(-c3nc(-c4cccs4)cs3)ncn2c1=O [WW-029, 3-(Prop-2-ynyl)-8-(4-(thiophen-2-yl)thiazol-2-yl)imidazo[5,1-d][1,2,3,5]tetrazin-4(3H)-one] | < 60 µM | < 70 µM | < 45 µM | < 75 µM |  |  | 
4 | C#CCn1nnc2c(-c3nc(-c4cccc(Cl)c4)cs3)ncn2c1=O [WW-023, 8-(4-(3-Chlorophenyl)thiazol-2-yl)-3-(prop-2-ynyl)imidazo[5,1-d][1,2,3,5]tetrazin-4(3H)-one] | < 60 µM | < 70 µM | < 45 µM | < 75 µM |  |  | 
5 | C#CCn1nnc2c(-c3nnc(-c4ccccc4)o3)ncn2c1=O [WW-042, 8-(5-Phenyl-1,3,4-oxadiazol-2-yl)-3-(prop-2-ynyl)imidazo[5,1-d][1,2,3,5]tetrazin-4(3H)-one] | < 60 µM | < 70 µM | < 45 µM | < 75 µM |  |  | 
6 | Cn1cc(-c2ccccc2)nc1-c1ncn2c(=O)n(C)nnc12 [WW-051, 3-Methyl-8-(1-methyl-4-phenyl-1H-imidazol-2-yl)imidazo[5,1-d][1,2,3,5]tetrazin-4(3H)-one] | < 60 µM | < 70 µM | < 45 µM | < 75 µM |  |  | 
7 | C#CCn1nnc2c(-c3nc(-c4ccccc4)c[nH]3)ncn2c1=O [WW-050, 8-(4-Phenyl-1H-imidazol-2-yl)-3-(prop-2-ynyl)imidazo[5,1-d][1,2,3,5]tetrazin-4(3H)-one] | < 60 µM | < 70 µM | < 45 µM | < 75 µM |  |  | 
8 | C#CCn1nnc2c(-c3nc(-c4ccc5c(c4)OCO5)cs3)ncn2c1=O [WW-026] | < 60 µM | < 70 µM | < 45 µM | < 75 µM |  |  | 
9 | Cn1nnc2c(-c3nc(-c4cccs4)c[nH]3)ncn2c1=O [WW-048, 3-Methyl-8-(4-(thiophen-2-yl)-1H-imidazol-2-yl)imidazo[5,1-d][1,2,3,5]tetrazin-4(3H)-one] | < 60 µM | < 70 µM | < 45 µM | < 75 µM |  |  | 
10 | COCn1nnc2c(/C=C/c3cccs3)ncn2c1=O [MM-004, (E)-3-(Methoxymethyl)-8-(2-(thiophen-2-yl)vinyl)imidazo[5,1-d][1,2,3,5]tetrazin-4(3H)-one] | 6.5 µM | 5.1 µM | 4.5 µM | 4.4 µM |  |  | 
11 | C#CCn1nnc2c(-c3nc(-c4nccs4)cs3)ncn2c1=O [WW-028, 8-(2,4′-Bithiazol-2′-yl)-3-(prop-2-ynyl)imidazo[5,1-d][1,2,3,5]tetrazin-4(3H)-one] | < 60 µM | < 70 µM | 54 µM | < 75 µM | 35.1 µM | 56.5 µM | 50 µM
12 | C[S+]([O-])Cn1nnc2c(-c3nc(-c4ccccc4)cs3)ncn2c1=O (stereo not shown) [WW-031, 3-(methylsulfinylmethyl)-8-(4-phenylthiazol-2-yl)imidazo[5,1-d][1,2,3,5]tetrazin-4(3H)-one] | < 60 µM | < 70 µM | < 45 µM | < 75 µM |  |  | 
13 | C#CCn1nnc2c(C(=N)NCC(=O)OC)ncn2c1=O [SS-001, Methyl-2-(4-oxo-3-(prop-2-ynyl)-3,4-dihydroimidazo[5,1-d][1,2,3,5]tetrazine-8-carboximidamido)acetate hydroiodide] | 55.1 µM | 52.7 µM | 59 µM | 51.2 µM |  |  | 
14 | C#CCn1nnc2c(-c3nc4ccccc4o3)ncn2c1=O [WW-055, 8-(Benzo[d]oxazol-2-yl)-3-(prop-2-ynyl)imidazo[5,1-d][1,2,3,5]tetrazin-4(3H)-one] | < 60 µM | < 70 µM | < 45 µM | < 75 µM |  |  | 
15 | COCn1nnc2c(C(=O)Nc3ccccc3)ncn2c1=O [LL-002, 3-(Methoxymethyl)-4-oxo-N-phenyl-3,4-dihydroimidazo[5,1-d][1,2,3,5]tetrazine-8-carboxamide] | 52.3 µM | 43.8 µM | 55.3 µM | 36.3 µM |  |  | 
16 | Cn1nnc2c(-c3ncc[nH]3)ncn2c1=O [WW-047, 8-(1H-Imidazol-2-yl)-3-methylimidazo[5,1-d][1,2,3,5]tetrazin-4(3H)-one] | < 60 µM | < 70 µM | < 45 µM | < 75 µM |  |  | 
